Assay results as given in ChEMBL document CHEMBL5257091, “Hydrazinecarbonyl-thiazol-2-acetamides with pronounced apoptotic behavior: synthesis, in vitro/in vivo anti-proliferative activity and molecular modeling simulations” (Bioorg Med Chem Lett, 2023).

Assays:
HepG2 = assay: Antiproliferative activity against human HepG2 cells assessed as inhibition of cell growth incubated for 24 hrs by MTT assay; type: functional, cell-based; details: HepG2, 24 h
MCF7 = assay: Antiproliferative activity against human MCF7 cells assessed as inhibition of cell growth incubated for 24 hrs by MTT assay; type: functional, cell-based; details: MCF7, 24 h
HeLa = assay: Antiproliferative activity against human HeLa cells assessed as inhibition of cell growth incubated for 24 hrs by MTT assay; type: functional, cell-based
HEp-2 = assay: Antiproliferative activity against human HEp-2 cells assessed as inhibition of cell growth incubated for 24 hrs by MTT assay; type: functional, cell-based; details: HEp-2, 24 h
PC-3 = assay: Antiproliferative activity against human PC-3 cells assessed as inhibition of cell growth incubated for 24 hrs by MTT assay; type: functional, cell-based; details: PC-3, 24 h
HCT-116 = assay: cells; details: Homo sapiens, HCT-116, 24 h
Description: Antiproliferative activity against human HCT-116 cells assessed as inhibition of cell growth incubated for 24 hrs by MTT assay

[1] = Selectivity index, ratio of IC50 for cytotoxicity against human WI-38 cells to IC50 for antiproliferative activity against human MCF7 cells; type: toxicity, cell-based; details: WI-38 cells and MCF7 cells, read-out: Ratio IC50
[2] = Selectivity index, ratio of IC50 for cytotoxicity against human WI-38 cells to IC50 for antiproliferative activity against human HCT-116 cells; type: toxicity, cell-based; details: WI-38 cells and HCT-116 cells, read-out: Ratio IC50
[3] = Selectivity index, ratio of IC50 for cytotoxicity against human WI-38 cells to IC50 for antiproliferative activity against human HepG2 cells; type: toxicity, cell-based; details: WI-38 cells and HepG2 cells, read-out: Ratio IC50
[4] = Selectivity index, ratio of IC50 for cytotoxicity against human WI-38 cells to IC50 for antiproliferative activity against human HeLa cells; type: toxicity, cell-based; details: WI-38 cells and HeLa cells, read-out: Ratio IC50
[5] = Selectivity index, ratio of IC50 for cytotoxicity against human WI-38 cells to IC50 for antiproliferative activity against human HEp-2 cells; type: toxicity, cell-based; details: WI-38 cells and HEp-2 cells, read-out: Ratio IC50
[6] = Selectivity index, ratio of IC50 for cytotoxicity against human WI-38 cells to IC50 for antiproliferative activity against human PC-3 cells; type: toxicity, cell-based; details: WI-38 cells and PC-3 cells, read-out: Ratio IC50
[7] = Cytotoxicity against human WI-38 cells assessed as inhibition of cell growth incubated for 24 hrs by MTT assay; type: toxicity, cell-based
[8] = biological target: Epidermal growth factor receptor (Homo sapiens, UniProt P00533); assay: Inhibition of EGFR (unknown origin) by fluorimetric assay
Chain of Epidermal growth factor receptor (P00533 whole entry): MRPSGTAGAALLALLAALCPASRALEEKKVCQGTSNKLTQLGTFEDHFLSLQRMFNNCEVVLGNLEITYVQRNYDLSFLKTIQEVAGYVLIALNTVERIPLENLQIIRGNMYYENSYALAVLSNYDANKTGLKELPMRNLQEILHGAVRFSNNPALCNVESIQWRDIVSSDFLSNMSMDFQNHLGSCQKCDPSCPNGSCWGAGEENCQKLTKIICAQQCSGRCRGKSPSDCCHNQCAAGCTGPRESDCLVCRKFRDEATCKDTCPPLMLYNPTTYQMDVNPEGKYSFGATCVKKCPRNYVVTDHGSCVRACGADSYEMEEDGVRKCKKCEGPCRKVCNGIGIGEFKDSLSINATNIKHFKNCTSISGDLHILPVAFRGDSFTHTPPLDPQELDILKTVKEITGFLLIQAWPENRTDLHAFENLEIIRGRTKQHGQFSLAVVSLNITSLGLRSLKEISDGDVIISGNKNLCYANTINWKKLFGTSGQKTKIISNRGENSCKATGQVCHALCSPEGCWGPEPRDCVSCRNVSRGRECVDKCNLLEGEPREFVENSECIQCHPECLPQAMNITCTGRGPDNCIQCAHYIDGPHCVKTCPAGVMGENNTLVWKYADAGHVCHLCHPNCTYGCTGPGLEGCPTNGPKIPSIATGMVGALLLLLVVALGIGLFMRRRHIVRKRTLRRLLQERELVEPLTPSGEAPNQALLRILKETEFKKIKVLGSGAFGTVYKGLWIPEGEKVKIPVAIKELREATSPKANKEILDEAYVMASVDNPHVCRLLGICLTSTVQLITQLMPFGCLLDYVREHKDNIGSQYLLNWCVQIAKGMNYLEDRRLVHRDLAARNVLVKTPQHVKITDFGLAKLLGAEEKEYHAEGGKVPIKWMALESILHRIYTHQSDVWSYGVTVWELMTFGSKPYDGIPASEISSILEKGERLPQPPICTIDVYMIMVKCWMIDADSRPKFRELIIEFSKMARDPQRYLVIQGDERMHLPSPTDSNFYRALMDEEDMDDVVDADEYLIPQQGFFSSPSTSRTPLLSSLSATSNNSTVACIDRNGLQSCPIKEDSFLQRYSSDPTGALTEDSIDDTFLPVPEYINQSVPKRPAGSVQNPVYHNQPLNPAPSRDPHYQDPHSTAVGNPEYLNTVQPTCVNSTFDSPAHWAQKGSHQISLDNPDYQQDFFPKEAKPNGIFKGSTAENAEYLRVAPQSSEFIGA

Dihydrofolate reductase = biological target: T1, Dihydrofolate reductase (Homo sapiens, UniProt P00374); assay: Inhibition of DHFR (unknown origin) incubated for 2 to 5 mins by absorbance based analysis
T1 sequence (P00374 whole entry): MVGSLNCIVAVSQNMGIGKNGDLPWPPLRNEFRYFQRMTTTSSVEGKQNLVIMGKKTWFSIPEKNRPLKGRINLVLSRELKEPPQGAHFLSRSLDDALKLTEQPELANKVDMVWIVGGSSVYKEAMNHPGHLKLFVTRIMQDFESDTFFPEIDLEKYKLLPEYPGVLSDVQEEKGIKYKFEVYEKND

Compound	IC50 (HepG2) [µM]	IC50 (MCF7) [µM]	IC50 (HeLa) [µM]	IC50 (HEp-2) [µM]	IC50 (PC-3) [µM]	IC50 (HCT-116) [µM]	selectivity ratio [1]	selectivity ratio [2]	selectivity ratio [3]	selectivity ratio [4]	selectivity ratio [5]	selectivity ratio [6]	IC50 at 24 h [7] [µM]	IC50 [8] [nM]	IC50 (Dihydrofolate reductase) [nM]
CCC(=O)NNC(=O)c1csc(NC(C)=O)n1	39.3	32.8	26.9	43.2	47.5	42.7									
CC(=O)Nc1nc(C(=O)NNC(=O)CN2CCN(Cc3ccccc3)CC2)cs1	74.5	57.7	52.6	84.8	92.3	66									
CC(=O)Nc1nc(C(=O)NNC(=O)CN2CCCCC2)cs1	12.4	16.4	13.9	19.7	18	24.5	3.68	2.47	4.88	4.34	3.07	3.35	60.5		
CC(=O)Nc1nc(C(=O)NNC(=O)CN2CCN(C)CC2)cs1	83.6	62.8	78.6	89.9		91.8									
CC(=O)Nc1nc(C(=O)NNC(=O)CCCl)cs1		69.2	86.4	93.2											
CC(=O)Nc1nc(C(=O)NNC(=O)CCN2CCN(C)CC2)cs1	9.85	8.36	7.92	11.2	14.3	18.4	5.6	2.54	4.76	5.92	4.17	3.27	46.9	131	678
